Columns and labels:
CTG-1302 tumors = experiment: Sarcoma PDX model CTG-1302 (leiomyosarcoma); type: in vivo, athymic nude mice; conditions: CTG-1302, 10, 30, 100 mg/kg BID oral, FIG. 9B
Description: (§1) MBT-2 cells were obtained from the Japanese Collection of Research Bioresources Cell Bank and were maintained in DMEM supplemented with 10% FBS. MC38 cells were obtained from the NCI. 4T1 cells were obtained from ATCC and maintained in RPMI media supplemented with 10% FBS. For MBT-2 experiments, 5×10^5 MBT-2 cells were inoculated subcutaneously into the right hind flank of 6- to 8-week-old C3H mice or athymic nude mice (Charles River Laboratories, Wilmington, Mass.). For MC38 studies, 12-week old female C57BL/6 mice were inoculated with brei of MC38 tumors (in-vivo passage 6) into the right hind flank. For 4T1 studies, 7.5×10^5 4 T1 cells were inoculated subcutaneously into the right hind flank of 6- to 8-week-old female BALB/c mice or athymic nude mice (Charles River Laboratories). […] Mice were monitored for tumor growth and overt tolerability over the course of the experiment. […] Tumor volume was calculated using the formula (L×W^2)/2, where L and W refer to the length and width dimensions, respectively. Tumor growth inhibition (TGI) was calculated using the formula (1−(VT/VC))×100, where VT is the tumor volume of the treatment group on the last day of treatment, and VC is the tumor volume of the control group on the last day of treatment. […]
(§2) The activity of Compound 1 in sarcoma PDX models was evaluated as described in Example H for PDX models. […] Three mice per group were analyzed. […]

[1] = system: human PBMCs co-cultured with H1299 cells; experiment: H1299 / PBMC co-culture cytokine assay; type: cell-based; conditions: 4 days
Experimental: The ability of Compound 1 to cooperate with checkpoint blockade to further boost antitumor responses was evaluated. H1299 lung cancer cells were co-cultured with stimulated human PBMCs treated with Compound 1, anti-human programmed cell death (PD)-1 antibody retifanlimab or the combination, and production of proinflammatory cytokines was assessed in two different experiments (FIG. 6).
H1299 cells were co-cultured with human PBMCs, each at 4 or 16×10^4 cells/mL in RPMI containing 10% FBS, 100 U/mL of penicillin-streptomycin (ThermoFisher Scientific; #15140-122) and 1× beta-mercaptoethanol (ThermoFisher Scientific; #21985-023). Compound 1 or retifanlimab were added as single agents or in combination to the cells. Anti-CD3 (BD Biosciences #555336), anti-CD28 (BD Biosciences #555725) or SEA (Toxin Technology, Sarasota, Fla.; #AT101red) were added at a final concentration of 1 μg/mL, 0.5 μg/mL or 100 ng/mL, respectively, to stimulate cell growth. Cultures were incubated at 37° C. in 5% CO2 incubator for 4 days. The supernatant was collected for cytokine analysis using a multiplex assay system (custom human ProcartaPlex Luminex kit, ThermoFisher Scientific; #PPX-15-MXRWE6P).

CTG-2426 tumors = experiment: PDX model CTG-2426 (myxofibrosarcoma); type: in vivo; conditions: athymic nude mice
Description: as §1, §2

MC38 tumor = MC38 tumor model, combination with checkpoint blockade; type: in vivo, C57BL/6 mice
Description: as §1, with “Laboratories). Mice were randomized by tumor volume with n=10-12 per group.” for “Laboratories).”

Compound: CC(C)C(=O)N1CCC(c2cc(-c3ccc(NC(=O)c4cn(C(C)C)c(=O)n(-c5ccccn5)c4=O)cc3)c3c(N)ncnn23)CC1 [Compound 1, N-(4-(4-Amino-7-(1-isobutyrylpiperidin-4-yl)pyrrolo[1,2-f][1,2,4]triazin-5-yl)phenyl)-1-isopropyl-2,4-dioxo-3-(pyridin-2-yl)-1,2,3,4-tetrahydropyrimidine-5-carboxamide]
- antitumor response (CTG-1302 tumors): robust antitumor response
- proinflammatory cytokine production ([1]; stimulated PBMCs + H1299, FIG. 6): induction of proinflammatory cytokines
- induction of IFN-γ ([1]; stimulated PBMCs + H1299, FIG. 6B): induced
- induction of tumor necrosis factor-α ([1]; stimulated PBMCs + H1299, FIG. 6C): induced
- induction of granulocyte-macrophage colony-stimulating factor ([1]; stimulated PBMCs + H1299, FIG. 6D): induced
- induction of IL-12 p70 ([1]; stimulated PBMCs + H1299, FIG. 6E): moderately induced
- TGI (%) (CTG-2426 tumors): 42%
- antitumor activity (tumor volume) (MC38 tumor; MC38 in C57BL/6 mice, Compound 1 oral BID, anti-PD-L1 15 mg/kg i.p. twice a week, FIG. 8A): single-agent antitumor activity
- proliferation of CD4+ and CD8+ tumor-infiltrating lymphocytes (Ki67+) (MC38 tumor; MC38 tumors, FIGS. 8B and 8C): induced proliferation
